From US10738056B2 (Aduro BioTech, Inc., priority 2017, dated 2020)

Tests used:
[1] = biological target: Human cGAS amino acids 155-522 (Homo sapiens (Human), UniProt Q8N884); test: cGAS biochemical activity assay (ATP remaining, Kinase-Glo Max luminescence); conditions: human cGAS 155-522, ATP remaining (Kinase-Glo Max); read-out: cGAS IC50
[2] = tested on: cGAS/STING pathway in THP1 cells; test: THP1 cell-based cGAS/STING pathway activity assay (IRF-3-linked luciferase reporter); conditions: Homo sapiens, THP-1
Procedure, shortened: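 THP1 cells carrying an IRF-3-driven luciferase reporter were read across a range of compound concentrations, and IC50 values were derived from these concentration responses; the assay upper limit was 100 μM.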

Sequence of Human cGAS amino acids 155-522 (Q8N884 157-522): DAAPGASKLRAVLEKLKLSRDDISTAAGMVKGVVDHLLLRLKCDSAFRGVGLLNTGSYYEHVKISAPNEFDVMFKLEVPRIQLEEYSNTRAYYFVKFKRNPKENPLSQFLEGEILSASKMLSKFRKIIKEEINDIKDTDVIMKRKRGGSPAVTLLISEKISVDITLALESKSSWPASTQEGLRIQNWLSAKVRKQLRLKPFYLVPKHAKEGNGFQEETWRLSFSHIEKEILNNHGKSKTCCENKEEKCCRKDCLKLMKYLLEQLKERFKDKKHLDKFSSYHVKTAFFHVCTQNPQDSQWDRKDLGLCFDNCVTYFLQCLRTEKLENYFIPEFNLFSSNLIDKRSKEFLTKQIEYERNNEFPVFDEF

Structure (SMILES)	IC50 [1] [µM]	IC50 [2] [µM]
COc1cccc2c(-c3c(C)[nH]c4c(-c5ccccc5)c(C(F)(F)F)nn4c3=O)n[nH]c12 [Compound C1026, 6-(7-methoxy-1H-indazol-3-yl)-5-methyl-3-phenyl-2-(trifluoromethyl)pyrazolo[1,5-a]pyrimidin-7(4H)-one]	20 to 250	< 20
COc1cccc2oc(-c3c(COCc4cnc[nH]4)[nH]c4c(-c5ccccc5)c(C(F)(F)F)nn4c3=O)nc12 [Compound C1182, 5-(((1H-imidazol-5-yl)methoxy)methyl)-6-(4-methoxybenzo[d]oxazol-2-yl)-3-phenyl-2-(trifluoromethyl)pyrazolo[1,5-a]pyrimidin-7(4H)-one]	< 20	> 100
Cc1[nH]c2c(-c3ccccc3)c(C(F)(F)F)nn2c(=O)c1C(=O)Nc1cccc2c1CCO2 [Compound A1102, N-(2,3-dihydrobenzofuran-4-yl)-5-methyl-7-oxo-3-phenyl-2-(trifluoromethyl)-4,7-dihydropyrazolo[1,5-a]pyrimidine-6-carboxamide]	< 20	> 100
Cc1[nH]c2c(-c3ccccc3)c(C(F)(F)F)nn2c(=O)c1C(=O)Nc1cccc(S(C)(=O)=O)c1 [Compound A1084, 5-methyl-N-(3-(methylsulfonyl)phenyl)-7-oxo-3-phenyl-2-(trifluoromethyl)-4,7-dihydropyrazolo[1,5-a]pyrimidine-6-carboxamide]	< 20	20 to 100
C#Cc1nn2c(=O)c(-c3nc4c(OC)cccc4o3)c(C)[nH]c2c1-c1ccccc1 [Compound C1211, 2-ethynyl-6-(4-methoxybenzo[d]oxazol-2-yl)-5-methyl-3-phenylpyrazolo[1,5-a]pyrimidin-7(4H)-one]	< 20	> 100
COc1cccc2oc(-c3c(C)[nH]c4c(-c5ccccc5)c(C(F)F)nn4c3=O)nc12 [Compound C1050, 2-(difluoromethyl)-6-(4-methoxybenzo[d]oxazol-2-yl)-5-methyl-3-phenylpyrazolo[1,5-a]pyrimidin-7(4H)-one]	< 20	< 20
Cc1[nH]c2c(-c3ccccc3)c(C(F)(F)F)nn2c(=O)c1-c1nnc([C@H]2CCCOC2)o1 [Compound D1025, (S)-5-methyl-3-phenyl-6-(5-(tetrahydro-2H-pyran-3-yl)-1,3,4-oxadiazol-2-yl)-2-(trifluoromethyl)pyrazolo[1,5-a]pyrimidin-7(4H)-one]	< 20	20 to 100
Cc1[nH]c2c(-c3ccccc3)c(C(F)(F)F)nn2c(=O)c1-c1nc2c(o1)CCCNC2=O [Compound C1059, 2-(5-methyl-7-oxo-3-phenyl-2-(trifluoromethyl)-4,7-dihydropyrazolo[1,5-a]pyrimidin-6-yl)-5,6,7,8-tetrahydro-4H-oxazolo[4,5-c]azepin-4-one]	< 20	> 100
Cc1[nH]c2c(-c3ccccc3)c(C(F)(F)F)nn2c(=O)c1-c1nc2c(o1)CCCC2O (centres unmarked) [Compound C1052, 6-(4-hydroxy-4,5,6,7-tetrahydrobenzo[d]oxazol-2-yl)-5-methyl-3-phenyl-2-(trifluoromethyl)pyrazolo[1,5-a]pyrimidin-7(4H)-one]	< 20	20 to 100
COc1cccc2oc(-c3c(C(=O)Nc4ccn(C)n4)[nH]c4c(-c5ccccc5)c(C(F)(F)F)nn4c3=O)nc12 [Compound C1256, 6-(4-methoxybenzo[d]oxazol-2-yl)-N-(1-methyl-1H-pyrazol-3-yl)-7-oxo-3-phenyl-2-(trifluoromethyl)-4,7-dihydropyrazolo[1,5-a]pyrimidine-5-carboxamide]	< 20	> 100
Cc1[nH]c2c(-c3ccccc3)c(C(F)(F)F)nn2c(=O)c1-c1nc2ccccc2o1 [Compound C1011, 6-(benzo[d]oxazol-2-yl)-5-methyl-3-phenyl-2-(trifluoromethyl)pyrazolo[1,5-a]pyrimidin-7(4H)-one]	> 250	< 20
COc1cc(CO)cc2oc(-c3c(C)[nH]c4c(-c5ccccc5)c(C#N)nn4c3=O)nc12 [Compound C1203, 6-(6-(hydroxymethyl)-4-methoxybenzo[d]oxazol-2-yl)-5-methyl-7-oxo-3-phenyl-4,7-dihydropyrazolo[1,5-a]pyrimidine-2-carbonitrile]	< 20	> 100
COCc1[nH]c2c(-c3ccccc3)c(C#N)nn2c(=O)c1-c1nc2c(OC)nccc2o1 [Compound C1246, 5-(methoxymethyl)-6-(4-methoxyoxazolo[4,5-c]pyridin-2-yl)-7-oxo-3-phenyl-4,7-dihydropyrazolo[1,5-a]pyrimidine-2-carbonitrile]	< 20	> 100
COc1cccc2oc(-c3c(C(=O)Nc4cn[nH]c4)[nH]c4c(-c5ccccc5)c(C(F)(F)F)nn4c3=O)nc12 [Compound C1244, 6-(4-methoxybenzo[d]oxazol-2-yl)-7-oxo-3-phenyl-N-(1H-pyrazol-4-yl)-2-(trifluoromethyl)-4,7-dihydropyrazolo[1,5-a]pyrimidine-5-carboxamide]	< 20	< 20
COc1cncc2oc(-c3c(C)[nH]c4c(-c5ccccc5)c(C(F)(F)F)nn4c3=O)nc12 [Compound C1096, 6-(7-methoxyoxazolo[5,4-c]pyridin-2-yl)-5-methyl-3-phenyl-2-(trifluoromethyl)pyrazolo[1,5-a]pyrimidin-7(4H)-one]	< 20	> 100
COc1cccc2oc(-c3c(COC4COC4)[nH]c4c(-c5ccccc5)c(C#N)nn4c3=O)nc12 [Compound C1259, 6-(4-methoxybenzo[d]oxazol-2-yl)-5-((oxetan-3-yloxy)methyl)-7-oxo-3-phenyl-4,7-dihydropyrazolo[1,5-a]pyrimidine-2-carbonitrile]	< 20	> 100
Cc1[nH]c2c(-c3ccccc3)c(C(F)(F)F)nn2c(=O)c1-c1ncco1 [Compound C1170, 5-methyl-6-(oxazol-2-yl)-3-phenyl-2-(trifluoromethyl)pyrazolo[1,5-a]pyrimidin-7(4H)-one]	< 20	> 100
COc1cccc2c(=O)[nH]c(-c3c(C)[nH]c4c(-c5ccccc5)c(C(F)(F)F)nn4c3=O)nc12 [Compound C1025, 8-methoxy-2-(5-methyl-7-oxo-3-phenyl-2-(trifluoromethyl)-4,7-dihydropyrazolo[1,5-a]pyrimidin-6-yl)quinazolin-4(3H)-one]	< 20	> 100
Cc1[nH]c2c(-c3ccccc3)c(C(F)(F)F)nn2c(=O)c1-c1nnc(C2CCOCC2)o1 [Compound D1016, 5-methyl-3-phenyl-6-(5-(tetrahydro-2H-pyran-4-yl)-1,3,4-oxadiazol-2-yl)-2-(trifluoromethyl)pyrazolo[1,5-a]pyrimidin-7(4H)-one]	< 20	> 100
Cc1[nH]c2c(-c3ccccc3)c(C(F)(F)F)nn2c(=O)c1C(=O)NS(=O)(=O)c1ccccc1Cl [Compound A1127, N-((2-chlorophenyl)sulfonyl)-5-methyl-7-oxo-3-phenyl-2-(trifluoromethyl)-4,7-dihydropyrazolo[1,5-a]pyrimidine-6-carboxamide]	< 20	20 to 100
Cc1[nH]c2c(-c3ccccc3)c(C(F)(F)F)nn2c(=O)c1C(=O)Nc1ccccc1N [Compound A1006, N-(2-aminophenyl)-5-methyl-7-oxo-3-phenyl-2-(trifluoromethyl)-4,7-dihydropyrazolo[1,5-a]pyrimidine-6-carboxamide]	< 20	> 100
Cc1nn2c(=O)c(-c3nc4c(o3)CCCC4)c(C)[nH]c2c1-c1ccccc1 [Compound C1032, 2,5-dimethyl-3-phenyl-6-(4,5,6,7-tetrahydrobenzo[d]oxazol-2-yl)pyrazolo[1,5-a]pyrimidin-7(4H)-one]	< 20	20 to 100
COc1cccc2oc(-c3c(C(=O)NCC(=O)O)[nH]c4c(-c5ccccc5)c(C(F)(F)F)nn4c3=O)nc12 [Compound C1195, (6-(4-methoxybenzo[d]oxazol-2-yl)-7-oxo-3-phenyl-2-(trifluoromethyl)-4,7-dihydropyrazolo[1,5-a]pyrimidine-5-carbonyl)glycine]	< 20	> 100
Cc1[nH]c2c(-c3ccccc3)c(C(F)(F)F)nn2c(=O)c1-c1nnc(N2CCCCC2CN)o1 (centres unmarked) [Compound D1070, 6-(5-(2-(aminomethyl)piperidin-1-yl)-1,3,4-oxadiazol-2-yl)-5-methyl-3-phenyl-2-(trifluoromethyl)pyrazolo[1,5-a]pyrimidin-7(4H)-one]	< 20	> 100
Cc1cnc(NC(=O)c2c(C)[nH]c3c(-c4ccccc4)c(C(F)(F)F)nn3c2=O)o1 [Compound A1075, 5-methyl-N-(5-methyloxazol-2-yl)-7-oxo-3-phenyl-2-(trifluoromethyl)-4,7-dihydropyrazolo[1,5-a]pyrimidine-6-carboxamide]	< 20	20 to 100
COc1cccc2oc(-c3c(COCC(F)F)[nH]c4c(-c5ccccc5)c(C(F)(F)F)nn4c3=O)nc12 [Compound C1232, 5-((2,2-difluoroethoxy)methyl)-6-(4-methoxybenzo[d]oxazol-2-yl)-3-phenyl-2-(trifluoromethyl)pyrazolo[1,5-a]pyrimidin-7(4H)-one]	< 20	20 to 100
Cc1[nH]c2c(-c3ccccc3)c(C(F)(F)F)nn2c(=O)c1-c1nc2ccccc2n1-c1ccccc1 [Compound C1229, 5-methyl-3-phenyl-6-(1-phenyl-1H-benzo[d]imidazol-2-yl)-2-(trifluoromethyl)pyrazolo[1,5-a]pyrimidin-7(4H)-one]	20 to 250	< 20
Cc1[nH]c2c(-c3ccccc3)c(C(F)(F)F)nn2c(=O)c1-c1nc2c([nH]1)CCCC2 [Compound C1017, 5-methyl-3-phenyl-6-(4,5,6,7-tetrahydro-1H-benzo[d]imidazol-2-yl)-2-(trifluoromethyl)pyrazolo[1,5-a]pyrimidin-7(4H)-one]	< 20	20 to 100
